Data taken from US7598421B2, “Materials for the delivery of biologically-active material to cells” (UCL Biomedica PLC, priority 2002, dated 2009).

What was measured:
[1] = system: Human airway epithelial cells; experiment: Transfection efficiency, luciferase assay in HAE cells (Example 19); assay type: cell-based; set-up: scale not given here; settings: peptide:DNA 4:1, peptide [K]16 GACRRETAWACG
Protocol: The activity of various compositions of the invention was measured in HAE cells using a Luciferase assay. RLU/mg refers to relative light units per mg of protein. The assay was carried out as follows:
Lipid (10 mg/mL; […] [1 mg of lipid]) in chloroform was placed into a glass vial (sterile). The solvents were removed in vacuo and further traces of chloroform were removed on the high vacuum for 24 h. Cationic lipids were either formulated alone or with DOPE (mole ratio, 1:1).
Deionized water (1 mL; MilliQ) was added to the film, to generate […] solution of lipid in water. The mixture was allowed to hydrate at 4° C. for 24 h. After warming to 40° C. the mixture was sonicated to generate a clear solution (5 in approx). The resulting liposome formulations were stable for up to 3 months.
The components of the complex were mixed in the required weight ratio. The lipid was initially mixed with the peptide and the resulting mixture was added to the plasmid DNA.
Human airway epithelial cells were seeded for 24 h at 37 °C in complete growth medium in a […]. Transfection complexes were left to aggregate for 30 min and diluted to a concentration of 1 μg of DNA per 0.5 ml in OptiMEM (Life technologies). The medium was removed from each well and replaced with 0.5 ml of transfection complex and was allow to incubate for a further 4 h. The transfection complexes were removed and then replace with growth medium and the cells were allowed to incubate for 48 h.
The transfected cells were washed with phosphate-buffered saline (PBS). Reporter lysis buffer (100 μl) (Promega) was added to each well and cooled to 4 °C for 15 min. The cells were then assayed with a luciferase assay kit. The total light emission was measured for each well for 60 sec. The protein concentration of each sample was determined using a protein assay reagent and the activity expressed as relative light units per milligram of protein (RLU/mg).
The values obtained for the lipids produced in Examples 17 and 18 above and for Lipofectin were measured at 1:1 and 2:1 ratios of lipid:DNA, and in each case the ratio of peptide:DNA was 4:1, the peptide used being [K]16 GACRRETAWACG. The ratios are expressed in terms of weight. The testing procedure used was that outlined in Human Gene Therapy 9, 575-585, 1998.

integrins = settings: cited from earlier work; for affinity and specificity for integrins: literature

| Molecule | luciferase activity, relative light units per mg of protein ([1]; 1:1 lipid:DNA by weight) | luciferase activity, relative light units per mg of protein ([1]; 2:1 lipid:DNA by weight) | affinity and specificity for integrins (integrins) | integrin specificity (integrins; table of peptides) |
| --- | --- | --- | --- | --- |
| CCCCCCCC/C=C\CCCCCCCC(=O)OC(C[N+](C)(C)C)C(C[N+](C)(C)C)OC(=O)CCCCCCC/C=C\CCCCCCCC.[I-].[I-] (centres unmarked) [Example 17, 1,4-Di(trimethylammonium)-2,3-dioleoyloxy-butane; diiodide] | 1.2 RLU/mg | 2.0 RLU/mg | – | – |
| CCCCCCCC/C=C\CCCCCCCCOC(C[N+](C)(C)C)C(C[N+](C)(C)C)OCCCCCCCC/C=C\CCCCCCCC (centres unmarked) [Example 18, 1,4-Di(trimethylammonium)-2,3-dioleyloxy-butane; diiodide] | 43.2 RLU/mg | 373.3 RLU/mg | – | – |
| GACDCRGDCFCA [Peptide 5] | – | – | high affinity for integrin v but is not v-specific | Peptide 5 (αv) |
| GACRGDMFGCA [Peptide 1] | – | – | affinity for 5 and av integrins but is non-specific | – |
| GACRRETAWACG [Peptide 6] | – | – | 51-specific | – |
